This passage reports IC50 results from patent US10722501B2 (BAYER AKTIENGESELLSCHAFT, priority 2016, dated 2020).

The target of this experiment is T1, recombinant full-length human prolyl endopeptidase (PREP) (Homo sapiens, UniProt P48147).
T1 construct: To recombinant full-length human prolyl endopeptidase (PREP, R&D-Systems, 4308-SE); purchased R&D-Systems 4308-SE
T1 sequence (P48147 1-710): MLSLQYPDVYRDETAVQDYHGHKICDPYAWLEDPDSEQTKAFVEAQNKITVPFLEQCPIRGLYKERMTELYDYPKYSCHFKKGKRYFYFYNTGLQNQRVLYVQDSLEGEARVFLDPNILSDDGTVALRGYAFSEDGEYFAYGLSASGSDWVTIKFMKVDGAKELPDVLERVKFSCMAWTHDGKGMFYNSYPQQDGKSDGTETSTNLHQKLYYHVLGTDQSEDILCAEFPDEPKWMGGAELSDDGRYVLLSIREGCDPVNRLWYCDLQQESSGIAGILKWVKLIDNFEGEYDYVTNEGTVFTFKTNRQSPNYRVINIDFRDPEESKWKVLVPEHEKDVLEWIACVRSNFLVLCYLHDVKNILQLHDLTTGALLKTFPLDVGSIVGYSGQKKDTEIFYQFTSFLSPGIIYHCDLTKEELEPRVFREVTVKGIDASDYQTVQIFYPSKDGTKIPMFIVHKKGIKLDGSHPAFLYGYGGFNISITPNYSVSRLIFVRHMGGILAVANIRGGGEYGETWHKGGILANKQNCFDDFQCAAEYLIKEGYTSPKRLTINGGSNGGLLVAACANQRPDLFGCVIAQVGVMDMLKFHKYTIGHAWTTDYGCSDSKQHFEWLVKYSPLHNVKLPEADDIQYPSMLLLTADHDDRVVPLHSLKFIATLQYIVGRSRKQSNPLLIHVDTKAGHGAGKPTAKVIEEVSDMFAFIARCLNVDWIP
Description: Biochemical human prolyl endopeptidase (PREP) assay with fluorescently labelled substrate. The settings on record: substrate Z-Gly-Pro-AMC 50 μM, 32° C., 60 min; some as mean values from multiple independent determinations. Summed up:
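0.4 nM (final, example) recombinant PREP in pH 7.5 Tris buffer with EDTA, GSH, BSA and Brij-35; compounds at 1 nM to 30 μM. Reaction started with 50 μM Z-Gly-Pro-AMC and followed by fluorescence (ex 360/em 465 nm) at 32° C for 60 min. IC50 interpolated from percent activity based on initial slopes.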
Take `O=C([C@@H]1CCCc2nn(CC3(c4cccc(Cl)n4)CC3)c(=O)n21)N1CC[C@H](F)C1` [Example 350, (5S)-2-{[1-(6-Chloropyridin-2-yl)cyclopropyl]methyl}-5-{[(3S)-3-fluoropyrrolidin-1-yl]carbonyl}-5,6,7,8-tetrahydro[1,2,4]triazolo[4,3-a]pyridin-3(2H)-one]: the IC50 (as a rule, the concentration that gives 50% inhibition) was found to be 0.35 nM. On to `O=C([C@@H]1CCCc2nn(CC3(c4ccc(F)cc4)CC3)c(=O)n21)N1CC(F)C1` [Example 351, (5S)-5-[(3-Fluoroazetidin-1-yl)carbonyl]-2-{[1-(4-fluorophenyl)cyclopropyl]methyl}-5,6,7,8-tetrahydro[1,2,4]triazolo[4,3-a]pyridin-3(2H)-one], for which the IC50 was found to be 1.6 nM. With `O=C([C@@H]1CCCc2nn(CC3(c4ccc(F)cc4)CC3)c(=O)n21)N1CC[C@H](F)C1` [Example 352, (5S)-2-{[1-(4-Fluorophenyl)cyclopropyl]methyl}-5-{[(3S)-3-fluoropyrrolidin-1-yl]carbonyl}-5,6,7,8-tetrahydro[1,2,4]triazolo[4,3-a]pyridin-3(2H)-one], the IC50 was 0.32 nM. As for `O=C([C@@H]1CCCc2nn(CC3(c4ccc(F)cc4)CC3)c(=O)n21)N1CCC(F)(F)C1` [Example 353, (5S)-5-[(3,3-Difluoropyrrolidin-1-yl)carbonyl]-2-{[1-(4-fluorophenyl)cyclopropyl]methyl}-5,6,7,8-tetrahydro[1,2,4]triazolo[4,3-a]pyridin-3(2H)-one], the figure is 2.3 nM; as for `Cc1ccc(C2(Cn3nc4n(c3=O)[C@H](C(=O)N3CC(O)C3)CCC4)CC2)cc1` [Example 354, (5S)-5-[(3-Hydroxyazetidin-1-yl)carbonyl]-2-{[1-(4-methylphenyl)cyclopropyl]methyl}-5,6,7,8-tetrahydro[1,2,4]triazolo[4,3-a]pyridin-3(2H)-one], 19 nM; as for `Cc1ccc(C2(Cn3nc4n(c3=O)[C@H](C(=O)N3CC(F)C3)CCC4)CC2)cc1` [Example 355, (5S)-5-[(3-Fluoroazetidin-1-yl)carbonyl]-2-{[1-(4-methylphenyl)cyclopropyl]methyl}-5,6,7,8-tetrahydro[1,2,4]triazolo[4,3-a]pyridin-3(2H)-one], 1.3 nM.

Consider `O=C([C@@H]1CCCc2nn(CC3(c4ccc(C(F)(F)F)cc4)CC3)c(=O)n21)N1CC[C@H](F)C1` [Example 356, (5S)-5-{[(3S)-3-Fluoropyrrolidin-1-yl]carbonyl}-2-({1-[4-(trifluoromethyl)phenyl]cyclopropyl}methyl)-5,6,7,8-tetrahydro[1,2,4]triazolo[4,3-a]pyridin-3(2H)-one], for which the IC50 amounted to 0.3 nM. Take `COc1ccc(C2(Cn3nc4n(c3=O)[C@H](C(=O)N3CC(F)C3)CCC4)CC2)cc1` [Example 357, (5S)-5-[(3-Fluoroazetidin-1-yl)carbonyl]-2-{[1-(4-methoxyphenyl)cyclopropyl]methyl}-5,6,7,8-tetrahydro[1,2,4]triazolo[4,3-a]pyridin-3(2H)-one]: the IC50 is 0.43 nM.

For the molecule `O=C([C@@H]1CCCc2nn(CC3(c4ccc(F)cc4F)CC3)c(=O)n21)N1CC[C@H](F)C1` [Example 358], the IC50 came out at 0.068 nM. As for `O=C([C@@H]1CCCc2nn(CC3(c4ccc(F)cc4F)CC3)c(=O)n21)N1CCC(F)(F)C1` [Example 359, (5S)-2-{[1-(2,4-Difluorophenyl)cyclopropyl]methyl}-5-[(3,3-difluoropyrrolidin-1-yl)carbonyl]-5,6,7,8-tetrahydro[1,2,4]triazolo[4,3-a]pyridin-3(2H)-one], the figure is 1.1 nM; as for `CCn1nc(C(F)(F)F)cc1Cn1nc2n(c1=O)[C@H](C(=O)N1CC[C@H](F)C1)CCC2` [Example 360, (5S)-2-{[1-Ethyl-3-(trifluoromethyl)-1H-pyrazol-5-yl]methyl}-5-{[(3S)-3-fluoropyrrolidin-1-yl]carbonyl}-5,6,7,8-tetrahydro[1,2,4]triazolo[4,3-a]pyridin-3(2H)-one], 0.81 nM. The same measure for `CCn1nc(C(F)(F)F)cc1Cn1nc2n(c1=O)[C@H](C(=O)N1C[C@@H](F)[C@@H](F)C1)CCC2` [Example 361, (5S)-5-{[(3R,4S)-3,4-Difluoropyrrolidin-1-yl]carbonyl}-2-{[1-ethyl-3-(trifluoromethyl)-1H-pyrazol-5-yl]methyl}-5,6,7,8-tetrahydro[1,2,4]triazolo[4,3-a]pyridin-3(2H)-one]: 1.2 nM; for `CCn1nc(C(F)(F)F)cc1Cn1nc2n(c1=O)[C@H](C(=O)N1CCC(F)(F)C1)CCC2` [Example 362, (5S)-5-[(3,3-Difluoropyrrolidin-1-yl)carbonyl]-2-{[1-ethyl-3-(trifluoromethyl)-1H-pyrazol-5-yl]methyl}-5,6,7,8-tetrahydro[1,2,4]triazolo[4,3-a]pyridin-3(2H)-one]: 1.35 nM; for `CCn1nc(C(F)(F)F)cc1Cn1nc2n(c1=O)[C@H](C(=O)N1CC(F)C1)CCC2` [Example 363, (5S)-2-{[1-Ethyl-3-(trifluoromethyl)-1H-pyrazol-5-yl]methyl}-5-[(3-fluoroazetidin-1-yl)carbonyl]-5,6,7,8-tetrahydro[1,2,4]triazolo[4,3-a]pyridin-3(2H)-one]: 2.3 nM. As for `O=C([C@@H]1CCCc2nn(Cc3csc(C(F)(F)F)n3)c(=O)n21)N1CCC(F)(F)C1` [Example 364, (5S)-5-[(3,3-Difluoropyrrolidin-1-yl)carbonyl]-2-{[2-(trifluoromethyl)-1,3-thiazol-4-yl]methyl}-5,6,7,8-tetrahydro[1,2,4]triazolo[4,3-a]pyridin-3(2H)-one], the figure is 29 nM; as for `O=C([C@@H]1CCCc2nn(Cc3csc(C(F)(F)F)n3)c(=O)n21)N1CC[C@H](F)C1` [Example 365, (5S)-5-{[(3S)-3-Fluoropyrrolidin-1-yl]carbonyl}-2-{[2-(trifluoromethyl)-1,3-thiazol-4-yl]methyl}-5,6,7,8-tetrahydro[1,2,4]triazolo[4,3-a]pyridin-3(2H)-one], 2.3 nM; as for `O=C([C@@H]1CCCc2nn(Cc3csc(C(F)(F)F)n3)c(=O)n21)N1C[C@@H](F)[C@@H](F)C1` [Example 366, (5S)-5-{[(3R,4S)-3,4-Difluoropyrrolidin-1-yl]carbonyl}-2-{[2-(trifluoromethyl)-1,3-thiazol-4-yl]methyl}-5,6,7,8-tetrahydro[1,2,4]triazolo[4,3-a]pyridin-3(2H)-one], 2.1 nM. Consider `N#C[C@@H]1CCCN1C(=O)[C@@H]1CCCc2nn(Cc3csc(C(F)(F)F)n3)c(=O)n21` [Example 367, (2S)-1-{[(5S)-3-Oxo-2-{[2-(trifluoromethyl)-1,3-thiazol-4-yl]methyl}-2,3,5,6,7,8-hexahydro[1,2,4]triazolo[4,3-a]pyridin-5-yl]carbonyl}pyrrolidine-2-carbonitrile], for which the IC50 was 0.425 nM.

As for `O=C([C@@H]1CCCc2nn(Cc3cccc(C(F)(F)F)n3)c(=O)n21)N1CCC(F)(F)C1` [Example 368, (5S)-5-[(3,3-Difluoropyrrolidin-1-yl)carbonyl]-2-{[6-(trifluoromethyl)pyridin-2-yl]methyl}-5,6,7,8-tetrahydro[1,2,4]triazolo[4,3-a]pyridin-3(2H)-one], the IC50 stood at 9 nM. `O=C([C@@H]1CCCc2nn(Cc3cccc(C(F)(F)F)n3)c(=O)n21)N1CC(F)C1` [Example 369, (5S)-5-[(3-Fluoroazetidin-1-yl)carbonyl]-2-{[6-(trifluoromethyl)pyridin-2-yl]methyl}-5,6,7,8-tetrahydro[1,2,4]triazolo[4,3-a]pyridin-3(2H)-one]: the IC50 amounted to 13 nM.
